Laboratory results reported in patent US20260200999A1, “SYNTHETIC TRANSCRIPTION FACTORS” (ETH ZURICH, priority 2022, published 2026).

B1: RelA361-551: MTERF158-399 fused to RelA361-551 transactivation domain (PIT2 version) (protein, listed as Homo sapiens)
chain: DEFPTMVFPSGQISQASALAPAPPQVLPQAPAPAPAPAMVSALAQAPAPVPVLAPGPPQAVAPPAPKPTQAGEGTLSEALLQLQFDDEDLGALLGNSTDPAVFTDLASVDNSEFQQLLNQGIPVAPHTTEPMLMEYPEAITRLVTGAQRPPDPAPAPLGAPGLPNGLLSGDEDFSSIADMDFSALLSQISS
B2: SEQ ID NO: 35: MTERF158-399 fused to two copies of RelA521-551 (protein)
chain: PGLPNGLLSGDEDFSSIADMDFSALLSQISSPGLPNGLLSGDEDFSSIADMDFSALLSQISS
B3: SEQ ID NO: 33: MTERF158-399 fused to two copies of FOXO3604-644 (protein)
chain: HEKFPSDLDLDMFNGSLECDMESIIRSELMDADGLDFNFDSHEKFPSDLDLDMFNGSLECDMESIIRSELMDADGLDFNFDS
B4: LMSTEN: MTERF158-399 fused to the LMSTEN domain of MYB (protein, listed as Homo sapiens)
chain: EAQNVSSHVPYPVALHVNIVNVPQPAAAAIQRHYNDEDPEKEKRIKELELLLMSTENELKGQQVLPTQNHTCSYPGWHST

System: Response Element-driven mCerulean reporter (MTERF1 binding sites, SEQ ID NO: 42)
Assay: mCerulean reporter co-transfection with HumTAP constructs in HEK293 cells (flow cytometry)
Assay type: cell-based, human
Conditions: HEK293; for reporter gene (mCerulean) expression / mCerulean expression, fold lower than the benchmark RelA430-551 TAD / reporter (mCerulean) expression: TAD fused to MTERF158-399; for reporter gene (mCerulean) expression: 5xRE reporter without spacer (SEQ ID NO: 48), compared with RelA430-551 (Example 1, FIG. 4A); for mCerulean expression, fold lower than the benchmark RelA430-551 TAD: FIG. 9B; for reporter (mCerulean) expression: pEF1a-driven, Example 4, FIG. 9B, C; for fluorescence relative to only one copy of the respective TAD: Example 1, FIG. 4A
Source text: To construct a promoter with Response Elements/MTERF1 binding sites driving the gene of interest, the inventors placed MTERF1 binding sites (SEQ ID NO: 42) upstream a minimal TATA box (SEQ ID NO: 103). An mCerulean fluorescent reporter representing the gene of interest (Gol) was placed downstream of the TATA box. Each of these is referred to as a reporter construct. Five different reporter constructs were made comprising respectively 3, 5, 7, 9, and 11 MTERF1 binding sites 6 base pairs apart upstream of the TATA box (FIG. 1A; SEQ ID NO: 41, 44, 45, 46 and 47, respectively). They were co-transfected with the MTF construct into Hela cells. […] Using flow cytometry, relative mCerulean levels were measured and calculated by normalization to the transfection control in Hela cells (FIG. 1C). […] Next, reporter plasmids with varying spacer lengths (0, 6 bp and 10 bp; SEQ ID NO: 48, 44 and 49, respectively) (FIG. 1F) between a fixed number of REs (i.e. 5 REs/MTERF1 binding sites) were transfected with the MTF construct. […] This was confirmed using flow cytometry (FIG. 1H). […]
With the goal to engineer stronger and possibly shorter HumTAPs, the inventors fused the MTERF158-399 peptide (SEQ ID NO: 1) to a variety of transactivation domains and transfected HEK293 cells with those constructs and the reporter construct comprising 5×RE/MTERF1 binding sites without a spacer between them (SEQ ID NO: 48).
First, MTERF158-399 (SEQ ID NO: 1) was fused with different subsequences of RelA. RelA361-551 (SEQ ID NO: 27) corresponds to the sequence used in the construction of the bacterial-derived synthetic TF PIT2 [19], while RelA342-551 (SEQ ID NO: 29) contains all annotated transactivation domains according to domain annotation under Uniprot Q04206 (https://www.uniprot.org/uniprotkb/Q04206/entry). […] We also fused MTERF158-399 (SEQ ID NO: 1) to a set of transactivation domains previously found to be strong activators with a small genetic footprint (FIG. 4B).
To further decrease the DNA footprint of a HumTAP, the inventors investigated to what degree the DNA binding domain may be reduced. To this end, the inventors created 3 versions of MTERF1 subsequences fused to RelA430-551 (SEQ ID NO: 3). MTERF173-399 (SEQ ID NO: 7), MTERF1104-399 (SEQ ID NO: 9), and MTERF1135-399 (SEQ ID NO: 11) are subunits of MTERF1 without its mitochondrial transfer peptide (MTERF11-57; SEQ ID NO: 37) that either lack only the first […] N-terminal amino acids (MTERF58-72; SEQ ID NO: 39) or additionally, also lack the first (MTERF173-98; SEQ ID NO: 104) or both the first and second (MTERF1104-134; SEQ ID NO: 106) mterf motifs (FIG. 5A). The removal of N-terminal domains reduces the genetic footprint of a HumTAP (FIG. 5B). These constructs were co-transfected into HEK293 cells with the reporter construct containing 5×RE without a spacer in its promoter (SEQ ID NO: 48).
In addition to RelA430-551 (termed “v1”), the inventors tested three alternative subsequences: v2) RelA342-551 (SEQ ID NO: 29), which contains all transactivation domains as annotated on UniProt Q04206; v3) RelA361-551 (SEQ ID NO: 27), which is identical to the peptide used in the construction of PIT2 [2]; and v4) RelA521-551 (SEQ ID NO: 31), which constitutes only the transactivation domain 1 (TA1). The protein domains WW (SEQ ID NO: 21), KRAB of ZNF473 (SEQ ID NO: 23), Nuc-rec-co-Act (SEQ ID NO: 25), LMSTEN (SEQ ID NO: 19), and FoxoTAD (SEQ ID NO: 17) were recently identified as strong transactivators. To assess their functionality in the HumTAP context, the inventors created fusion proteins between each of them and MTERF158-399 (SEQ ID NO: 1) (FIG. 9A).
Upon co-transfection of HEK293 cells with plasmids encoding pEF1a-driven expression of the fusion HumTAPs, a Response Element-driven mCerulean reporter protein, and a mCherry transfection control, all peptides derived from RelA except TA1 mediated high levels of reporter gene expression. […]

[1] = two copies of TAD fused to MTERF158-399

| Molecule | reporter gene (mCerulean) expression | reporter (mCerulean) expression | further results |
| --- | --- | --- | --- |
| FoxoTAD: MTERF158-399 fused to the FOXO-TAD domain of FOXO3 (HEKFPSDLDLDMFNGSLECDMESIIRSELMDADGLDFNFDS; listed as Homo sapiens) | mediated significant mCerulean expression |  | mCerulean expression, fold lower than the benchmark RelA430-551 TAD: 8.4 fold |
| NucRecCoAct: MTERF158-399 fused to the Nuc_rec_co-act domain of NCOA3 (EGQSDERALLDQLHTLLSNTDATGLEEIDRALGIPELVNQGQALEPKQ; listed as Homo sapiens) | did not lead to high reporter expression | little to no reporter expression |  |
| RelA342-551: MTERF158-399 fused to RelA342-551, containing all annotated transactivation domains | stronger reporter gene expression |  |  |
| TA1: MTERF158-399 fused to the TA1 domain of RelA (PGLPNGLLSGDEDFSSIADMDFSALLSQISS; listed as Homo sapiens) | did not activate reporter gene expression significantly | little to no reporter expression |  |
| VP64: MTERF158-399 fused to VP64, viral-derived transactivation domain repeats of HHV11 linked by a GS linker (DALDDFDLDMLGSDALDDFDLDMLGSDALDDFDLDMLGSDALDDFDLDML) | lower reporter expression than the benchmark |  |  |
| WW: MTERF158-399 fused to the WW domain of WWC1 | did not lead to high reporter expression | little to no reporter expression |  |
| ZNF473 KRAB: MTERF158-399 fused to the KRAB domain of ZNF473 (FVTLKDVGMDFTLGDWEQLGLEQGDTFWDTALDNCQDLFLLDPP; listed as Homo sapiens) | did not lead to high reporter expression | little to no reporter expression |  |
| B1 | stronger reporter gene expression |  |  |
| B2 |  | led to reporter expression | fluorescence relative to only one copy of the respective TAD [1]: 201 times |
| B3 |  | enhanced the transcriptional activity of the synthetic TF more than two copies of TA1 or two copies of LMSTEN | mCerulean expression, fold more than the benchmark RelA430-551 TAD (fused to MTERF158-399, FIG. 9C): ~ 2 fold; fluorescence relative to only one copy of the respective TAD [1]: 12 times; mCerulean/reporter expression, fold more than one copy of the TAD (two copies of TAD fused to MTERF158-399, Example 4, FIG. 9C): 20 fold |
| B4 | mediated significant mCerulean expression |  | mCerulean expression, fold lower than the benchmark RelA430-551 TAD: 11.3 fold |
